Measured values: PubChem BioAssay (NCI)
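Five concentrations, 48 hours, 96-well plates. At the TGI there is no net growth.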

Legend:
Test in all cases: NCI anticancer screen, dose series, 48 h
[1] = system: 786-0 renal
[2] = system: A498 renal
[3] = system: A549 NSCLC
[4] = system: ACHN renal
[5] = system: BT-549 breast
[6] = system: CAKI-1 renal
[7] = system: CCRF-CEM leukemia
[8] = system: COLO 205 colon
[9] = system: DU-145 prostate
[10] = system: EKVX NSCLC
[11] = system: HCT-116 colon
[12] = system: HCT-15 colon
[13] = system: HL-60(TB) leukemia
[14] = system: HOP-62 NSCLC
[15] = system: HOP-92 NSCLC
[16] = system: HS 578T breast
[17] = system: HT29 colon
[18] = system: IGROV1 ovarian
[19] = system: K-562 leukemia
[20] = system: KM12 colon
[21] = system: LOX IMVI melanoma
[22] = system: M14 melanoma
[23] = system: MALME-3M melanoma
[24] = system: MCF7 breast
[25] = system: MDA-MB-231 breast
[26] = system: MDA-MB-435
[27] = system: MDA-N
[28] = system: MOLT-4 leukemia
[29] = system: NCI-H23 lung
[30] = system: NCI-H460 lung
[31] = system: NCI-H522 lung
[32] = system: NCI/ADR-RES ovarian
[33] = system: OVCAR-3 ovarian
[34] = system: OVCAR-4 ovarian
[35] = system: OVCAR-5 ovarian
[36] = system: OVCAR-8 ovarian
[37] = system: PC-3 prostate
[38] = system: RPMI-8226 leukemia
[39] = system: RXF 393 renal
[40] = system: SF-268 CNS
[41] = system: SF-295 CNS
[42] = system: SF-539 CNS
[43] = system: SK-MEL-2 melanoma
[44] = system: SK-MEL-28 melanoma
[45] = system: SK-MEL-5 melanoma
[46] = system: SK-OV-3 ovarian
[47] = system: SN12C renal
[48] = system: SNB-19 CNS
[49] = system: SNB-75 CNS
[50] = system: SR leukemia
[51] = system: SW-620 colon
[52] = system: T-47D breast
[53] = system: TK-10 renal
[54] = system: U251 CNS
[55] = system: UACC-257 melanoma
[56] = system: UACC-62 melanoma
[57] = system: UO-31 renal
[58] = system: DLD-1 colon
[59] = system: DMS 114 small cell lung
[60] = system: DMS 273 small cell lung
[61] = system: HCC-2998 colon
[62] = system: KM20L2 colon
[63] = system: LXFL 529 NSCLC
[64] = system: M19-MEL melanoma
[65] = system: NCI-H226 lung
[66] = system: SNB-78 CNS
[67] = system: XF 498 CNS

**Q.** Which TGI [1] does the source give for `Cc1cc2c(cc1C)[n+](=O)c(C(=O)c1ccccc1)c(C(F)(F)F)n2[O-]` here?
**A.** 14.7 µM

**Q.** What about the TGI [2] of the same molecule?
**A.** 13.6 µM

**Q.** What about the TGI [3] of the same molecule?
**A.** 3.88 µM

**Q.** What about the TGI [4] of the same molecule?
**A.** 8.29 µM

**Q.** And the TGI [5]?
**A.** 23.9 µM

**Q.** And the TGI [6]?
**A.** 2.42 µM

**Q.** And the TGI [7]?
**A.** 8.52 µM

**Q.** What about the TGI [8] of the same molecule?
**A.** 2.95 µM

**Q.** And the TGI [9]?
**A.** 3.15 µM

**Q.** And the TGI [10]?
**A.** 2.97 µM

**Q.** And the TGI [11]?
**A.** 10.6 µM

**Q.** And the TGI [12]?
**A.** > 34.4 µM

**Q.** And the TGI [13]?
**A.** 5.73 µM

**Q.** And the TGI [14]?
**A.** 2.34 µM

**Q.** And the TGI [15]?
**A.** 1.46 µM

**Q.** And the TGI [16]?
**A.** 15.1 µM

**Q.** What about the TGI [17] of the same molecule?
**A.** 9.11 µM

**Q.** And the TGI [18]?
**A.** 4.02 µM

**Q.** What about the TGI [19] of the same molecule?
**A.** 9.14 µM

**Q.** What about the TGI [20] of the same molecule?
**A.** 5.1 µM

**Q.** And the TGI [21]?
**A.** 7.58 µM

**Q.** And the TGI [22]?
**A.** 16.5 µM

**Q.** And the TGI [23]?
**A.** 9.89 µM

**Q.** And the TGI [24]?
**A.** 14.1 µM

**Q.** What about the TGI [25] of the same molecule?
**A.** 6.55 µM

**Q.** What about the TGI [26] of the same molecule?
**A.** 11.2 µM

**Q.** What about the TGI [27] of the same molecule?
**A.** 14.2 µM

**Q.** What about the TGI [28] of the same molecule?
**A.** > 28.3 µM

**Q.** And the TGI [29]?
**A.** 6.78 µM

**Q.** And the TGI [30]?
**A.** 2.98 µM

**Q.** What about the TGI [31] of the same molecule?
**A.** 12.9 µM

**Q.** What about the TGI [32] of the same molecule?
**A.** > 26.2 µM

**Q.** What about the TGI [33] of the same molecule?
**A.** 3.8 µM

**Q.** What about the TGI [34] of the same molecule?
**A.** 1.71 µM

**Q.** And the TGI [35]?
**A.** 10.2 µM

**Q.** What about the TGI [36] of the same molecule?
**A.** > 26.8 µM

**Q.** And the TGI [37]?
**A.** 9.19 µM

**Q.** What about the TGI [38] of the same molecule?
**A.** 3.6 µM

**Q.** And the TGI [39]?
**A.** 12.9 µM

**Q.** And the TGI [40]?
**A.** 7.71 µM

**Q.** And the TGI [41]?
**A.** 10.6 µM

**Q.** And the TGI [42]?
**A.** > 35.1 µM

**Q.** What about the TGI [43] of the same molecule?
**A.** 19.7 µM

**Q.** What about the TGI [44] of the same molecule?
**A.** 16.4 µM

**Q.** And the TGI [45]?
**A.** 3.75 µM

**Q.** What about the TGI [46] of the same molecule?
**A.** > 28.8 µM

**Q.** What about the TGI [47] of the same molecule?
**A.** 10.2 µM

**Q.** What about the TGI [48] of the same molecule?
**A.** 15.5 µM

**Q.** What about the TGI [49] of the same molecule?
**A.** 10.7 µM

**Q.** And the TGI [50]?
**A.** 2.9 µM

**Q.** What about the TGI [51] of the same molecule?
**A.** 21.2 µM

**Q.** What about the TGI [52] of the same molecule?
**A.** 5.08 µM

**Q.** What about the TGI [53] of the same molecule?
**A.** 12.7 µM

**Q.** And the TGI [54]?
**A.** 16.4 µM

**Q.** What about the TGI [55] of the same molecule?
**A.** 14.6 µM

**Q.** What about the TGI [56] of the same molecule?
**A.** 7.72 µM

**Q.** What about the TGI [57] of the same molecule?
**A.** 4.66 µM

**Q.** Which results are given for `Cc1cc(=O)c2c(O)cc3c(c2o1)CC=C(COC1OC(COC2OC(CO)C(O)C(O)C2O)C(O)C(O)C1O)CO3` (centres undefined)?
**A.** TGI [1]: > 100 µM; TGI [3]: > 100 µM; TGI [4]: > 100 µM; TGI [6]: > 100 µM; TGI [7]: > 100 µM; TGI [8]: > 100 µM; TGI [58]: > 100 µM; TGI [59]: > 100 µM; TGI [60]: > 100 µM; TGI [10]: > 100 µM; TGI [61]: > 100 µM; TGI [11]: > 100 µM; TGI [12]: > 100 µM; TGI [14]: > 100 µM; TGI [15]: > 100 µM; TGI [18]: > 100 µM; TGI [19]: > 100 µM; TGI [20]: > 100 µM; TGI [62]: > 100 µM; TGI [21]: > 100 µM; TGI [63]: > 100 µM; TGI [22]: > 100 µM; TGI [64]: > 100 µM; TGI [23]: > 100 µM; TGI [28]: > 100 µM; TGI [65]: > 100 µM; TGI [29]: > 100 µM; TGI [30]: > 100 µM; TGI [31]: > 100 µM; TGI [33]: > 100 µM; TGI [34]: > 100 µM; TGI [35]: > 100 µM; TGI [36]: > 100 µM; TGI [40]: > 100 µM; TGI [41]: > 100 µM; TGI [42]: > 100 µM; TGI [43]: > 100 µM; TGI [44]: > 100 µM; TGI [45]: > 100 µM; TGI [46]: > 100 µM; TGI [47]: > 100 µM; TGI [48]: > 100 µM; TGI [49]: > 100 µM; TGI [66]: > 100 µM; TGI [50]: > 100 µM; TGI [51]: > 100 µM; TGI [53]: > 100 µM; TGI [54]: > 100 µM; TGI [55]: > 100 µM; TGI [56]: > 100 µM; TGI [57]: > 100 µM; TGI [67]: > 100 µM
